According to the supplement of paper PMC10307832:

Key:
Experiment in all cases: relative viability (nuclei count vs DMSO), 5 days (fraction); higher = more cells survive
BX 795 + Navitoclax = compound: O=C(NCCCNc1nc(Nc2cccc(NC(=O)N3CCCC3)c2)ncc1I)c1cccs1 [BX 795] + CC1(C)CCC(c2ccc(Cl)cc2)=C(CN2CCN(c3ccc(C(=O)NS(=O)(=O)c4ccc(N[C@H](CCN5CCOCC5)CSc5ccccc5)c(S(=O)(=O)C(F)(F)F)c4)cc3)CC2)C1 [Navitoclax] (partner 0.5 µM)
How it was run: (§1)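 Values are medians from duplicate plates. Each reflects relative viability, defined as the nuclei count of treated wells over that of vehicle wells. Lung cancer cell lines in 1536-well plates were pin-tool dosed one day after seeding with one drug alone or with a fixed anchor-drug dose plus five library-drug doses (not always all listed) in √10 steps, then fixed, stained and imaged at 4× after 5 days.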

BX 795 + Foretinib = compound: O=C(NCCCNc1nc(Nc2cccc(NC(=O)N3CCCC3)c2)ncc1I)c1cccs1 [BX 795] + COc1cc2c(Oc3ccc(NC(=O)C4(C(=O)Nc5ccc(F)cc5)CC4)cc3F)ccnc2cc1OCCCN1CCOCC1 [Foretinib] (partner 0.25 µM)
How it was run: as §1

BX 795 + OSI-027 = compound: O=C(NCCCNc1nc(Nc2cccc(NC(=O)N3CCCC3)c2)ncc1I)c1cccs1 [BX 795] + COc1cccc2cc(-c3nc([C@H]4CC[C@H](C(=O)O)CC4)n4ncnc(N)c34)[nH]c12 [OSI-027] (partner 0.5 µM)
How it was run: as §1

BX 795 + Alpelisib = compound: O=C(NCCCNc1nc(Nc2cccc(NC(=O)N3CCCC3)c2)ncc1I)c1cccs1 [BX 795] + Cc1nc(NC(=O)N2CCC[C@H]2C(N)=O)sc1-c1ccnc(C(C)(C)C(F)(F)F)c1 [Alpelisib] (partner 2 µM)
How it was run: as §1

BX 795 + Olaparib = compound: O=C(NCCCNc1nc(Nc2cccc(NC(=O)N3CCCC3)c2)ncc1I)c1cccs1 [BX 795] + O=C(c1cc(Cc2n[nH]c(=O)c3ccccc23)ccc1F)N1CCN(C(=O)C2CC2)CC1 [Olaparib] (partner 8 µM)
How it was run: as §1

| Cell Line | relative viability (BX 795 + Navitoclax; first compound 0.04 µM) | relative viability (BX 795 + Navitoclax; first compound 0.1265 µM) | relative viability (BX 795 + Navitoclax; first compound 0.4 µM) | relative viability (BX 795 + Navitoclax; first compound 1.265 µM) | relative viability (BX 795 + Foretinib; first compound 0.04 µM) | relative viability (BX 795 + Foretinib; first compound 0.1265 µM) | relative viability (BX 795 + Foretinib; first compound 0.4 µM) | relative viability (BX 795 + Foretinib; first compound 1.265 µM) | relative viability (BX 795 + OSI-027; first compound 0.04 µM) | relative viability (BX 795 + OSI-027; first compound 0.1265 µM) | relative viability (BX 795 + OSI-027; first compound 0.4 µM) | relative viability (BX 795 + OSI-027; first compound 1.265 µM) | relative viability (BX 795 + Alpelisib; first compound 0.04 µM) | relative viability (BX 795 + Alpelisib; first compound 0.1265 µM) | relative viability (BX 795 + Alpelisib; first compound 0.4 µM) | relative viability (BX 795 + Alpelisib; first compound 1.265 µM) | relative viability (BX 795 + Olaparib; first compound 0.04 µM) | relative viability (BX 795 + Olaparib; first compound 0.1265 µM) | relative viability (BX 795 + Olaparib; first compound 0.4 µM) | relative viability (BX 795 + Olaparib; first compound 1.265 µM) |
| --- | --- | --- | --- | --- | --- | --- | --- | --- | --- | --- | --- | --- | --- | --- | --- | --- | --- | --- | --- | --- |
| NCI-H2170 | 0.674 | 0.62 | 0.659 | 0.53 | 0.979 | 1.02 | 1.05 | 0.998 | 0.725 | 0.643 | 0.791 | 0.674 | 0.859 | 0.92 | 0.864 | 0.751 | 0.597 | 0.681 | 0.538 | 0.487 |
| NCI-H2228 | 0.894 | 0.811 | 0.857 | 0.486 | 1.05 | 0.967 | 1.13 | 0.625 | 0.483 | 0.641 | 0.471 | 0.265 | 0.787 | 0.857 | 0.828 | 0.362 | 0.788 | 0.74 | 0.559 | 0.311 |
| NCI-H2347 | 1.02 | 0.743 | 1.05 | 0.76 | 1.03 | 0.915 | 0.8 | 0.773 | 0.503 | 0.541 | 0.616 | 0.352 | 1.19 | 1 | 1.11 | 0.892 | 0.679 | 0.658 | 0.646 | 0.515 |
| NCI-H2405 | 0.827 | 0.848 | 0.588 | 0.7 | 1.08 | 1.06 | 1.02 | 0.935 | 0.75 | 0.65 | 0.66 | 0.559 | 0.785 | 0.735 | 0.372 | 0.626 | 1.03 | 0.839 | 0.558 | 0.878 |
| NCI-H3122 | 1.03 | 1 | 1.04 | 1.05 | 1.01 | 1.04 | 1 | 0.992 | 0.948 | 1.06 | 0.947 | 0.733 | 0.989 | 0.832 | 0.78 | 0.866 | 0.573 | 0.609 | 0.539 | 0.669 |
| PC-3 [JPC-3] | 0.864 | 0.838 | 0.905 | 0.75 | 1.03 | 1.03 | 1.03 | 0.949 | 0.813 | 0.81 | 0.829 | 0.72 | 1.02 | 1.03 | 1.15 | 1.02 | 1.16 | – | 1.04 | 1.09 |
| PC-14 | 0.976 | 0.988 | 1.08 | 0.795 | 0.861 | 1.01 | 0.992 | 0.704 | 0.738 | 0.968 | 0.572 | 0.475 | 0.955 | 0.939 | 0.918 | 0.813 | 0.241 | 0.298 | 0.139 | 0.236 |
| RERF-LC-KJ | 0.759 | 0.93 | 0.771 | 0.881 | 0.907 | 0.851 | 0.889 | 0.888 | 0.62 | 0.636 | 0.591 | 0.416 | 0.73 | 0.938 | 0.818 | 0.742 | 0.919 | 0.963 | 0.945 | 0.409 |
| SK-LU-1 | 0.702 | 0.915 | 0.553 | 0.724 | 0.762 | 0.902 | – | 0.569 | 0.327 | 0.427 | – | 0.245 | 1.03 | 0.946 | 0.672 | 0.479 | 0.484 | 0.519 | 0.31 | 0.413 |
| SK-MES-1 | 1.26 | 1.32 | 1.23 | 0.886 | 0.917 | 0.971 | 0.823 | 0.674 | 0.471 | 0.548 | 0.224 | 0.299 | 1.02 | 0.909 | 0.925 | 0.641 | 0.746 | 0.646 | 0.688 | 0.383 |
| SW 1573 | 0.886 | 1.13 | 1.12 | 0.837 | 0.916 | 0.844 | 0.971 | 0.777 | 0.684 | 0.686 | 0.614 | 0.322 | 0.766 | 0.734 | 1.01 | 0.674 | 0.673 | 0.531 | 0.669 | 0.238 |
| UMC-11 | 0.321 | 0.347 | 0.326 | 0.17 | 0.85 | 1.06 | 0.805 | 0.168 | 0.469 | 0.43 | 0.371 | 0.27 | 1.02 | 1.14 | 1.02 | 0.354 | 0.381 | 0.32 | 0.861 | 0.27 |
